This note sets out measurements from patent EP3050886A1, “Fluorescent dyes and dye precursors” (Bürkert Werke GmbH, priority 2015, dated 2016).

One series concerns E. coli (ATCC 8739). Description: Labeling of viable E. coli, fluorescence intensity by spectrofluorometer. In kind it is cell-based, Escherichia coli. As to conditions: for E. coli staining at 40 µM compared with 5-CFDA or 5-PFDA / concentration range resulting in a saturation process / concentration up to which an increase of viable E. coli fluorescence intensity is obtained: data not shown; for viable E. coli fluorescence intensity relative to 5-CFDA staining: 10 - 15 µM, 30 min at 37 °C, excitation 488 nm, emission 517 nm, Figure 5. The procedure:
(§1) For the staining tests, E. coli (ATCC 8739 or EC18), E. cloacae, C. indologenes, P. aeruginosa and B. subtilis were cultivated in Luria-Bertani (LB) broth until exponential phase at 37°C with shaking at 300 rpm revolutions per minutes (rpm). Bacteria were harvested and washed in sterile phosphate buffer saline solution (PBS) at pH […] by centrifugation at 10000 rpm for 3 min at room temperature (21 ± 2 °C). Then the bacteria were resuspended in PBS at a concentration of 1·10^9 bacteria/ml. Bacteria concentration was calculated according to the turbidity measure at 660 nm (A660nm=1 correspond to bacterial suspension at ∼ 5·10^8 bacteria/ ml).
(§2) Dead bacterial suspensions at 1·10^9 bacteria/ml (negative controls) of these five species of bacteria were prepared individually by addition of 20 µl of bleach containing 2.6 % active chlorine. Bacteria were treated with bleach solution for 15 min. Dead bacteria were washed twice in sterile PBS by centrifugation at 10000 rpm for 3 min at room temperature. The culturability of the negative controls was assessed by plating 100 µl of bacterial suspension onto LB agar or Caso agar and incubating the plates at 37 °C for 72 h.
[…] Bacteria were incubated at 37 °C for 10 - 60 min with pro-fluorophore in darkness. After bacterial staining, they were washed and resuspended in 100 µl of PBS as described above.
(§3) Staining of the bacterial suspension was observed under a fluorescent microscope. These bacteria were imaged with a Leica DM5500 microscope equipped with FITC filter. […] Images were collected with a 100x objective. Fluorescence intensity of stained bacterial suspension was also measured with FluoroLog®-3 (Horiba Jobin Yvon) spectrofluorometer equipped with sample stirring. Samples were placed in fluorescence grade quartz cuvette having a volume of 1 ml. The excitation wavelength used was 488 nm and emission wavelength used was 517 nm. The same experiment was repeated three times (n = 3).
Viable or dead E. coli (ATCC 8739) were incubated with different pro-fluorophores (10 - 15 µM) for 30 min at 37 °C. After washes, fluorescence of the E. coli suspension was measured with a FluoroLog®-3 spectrofluorometer (excitation wavelength: 488 nm, emission wavelength: 517 nm). Relative rates of viable E. coli fluorescence intensity were calculated by normalizing the difference of viable E. coli fluorescence intensity and dead E. coli fluorescence intensity with 5-CFDA staining.
Viable E. coli (ATCC 8739) were incubated with different pro-fluorophores (15 µM) at 37 °C for 10 - 60 min. After washes, E. coli fluorescence suspension was measured with FluoroLog®-3 spectrofluorometer (excitation wavelength: 488 nm, emission wavelength: 517 nm).

A short description of series [1]: Long-term stability in anhydrous DMSO (UHPLC-MS/MS). Format: physicochemical. As to conditions: 120 µM in anhydrous DMSO, room temperature (23 ± 2 °C), absence of light, after 77 days. The procedure:
To examine whether the pro-fluorophores 5-POGDA and 5-POGAM could be stored for at least two months in solution at room temperature (23 ± 2 °C) and in the absence of light, they were dissolved in anhydrous DMSO solvent and analysed by liquid chromatography-mass spectrometry. The analysis was performed using an UHPLC-MS/MS system (LC-MS 8030, Shimadzu). 5-POGDA or AM (120 µM) were stored in anhydrous DMSO. A solution of 5-CFDA (20 µM) in acetonitrile stored at -80°C was used as internal reference for HPLC-MS/MS analysis. The solution injected was composed of 5-POGDA or AM (1.2 µM), and 5-CFDA (0,2 µM) in H2O/acetonitrile, ratio 1/1 (V/V).
Data acquisition and analysis were performed using LabSolutions version 5 software. A 1.7 µm Kinetex™ column (50 X 2.1 mm) was used for HPLC. The mobile phase flow rate was fixed at 0.5 ml/min and the following program was applied for the elution: 0-1.2 min, 5-95% B; 1.2-1.4 min, 95% B; 1.4-1.42 min, […] and 1.42-2.8 min, 5% B. Solvent A consisted of 0.05% formic acid in water and solvent B was HPLC grade acetonitrile. 1 µl was injected.
The mass spectrometer was interfaced with the UHPLC system using an electrospray ion source. […] The percentage of remaining test compound relative to t0 was measured using the peak area on the chromatogram.

For series [2], the system named is Comamonas testosteroni/alcaligenes. Description: Bacteria staining test, fluorescence microscopy (data not shown). In kind it is cell-based. Here is the method: (§4) Bacteria (100 µl suspension at 1·10^9 bacteria/ml) were stained with 10 µM or 15 µM of pro-fluorophore (5-CFDA, 5-PFDAE, 5-PFDAT, 5-PFDA, 5-COGDA, 5-POGDA or 5-POGAM) in 200 µl of PBS solution containing 0.6 % of glutaraldehyde. Bacteria were incubated at 37 °C for 10 - 60 min with pro-fluorophore in darkness. After bacterial staining, they were washed and resuspended in 100 µl of PBS as described above.
as §3
(§5) No fluorescence signal was detected by microscopy analysis with the dead bacteria.

The next series deals with Citobacter freudii. Described as above. Format: cell-based. The procedure: as §4, §3, §5
The test system of another series is Klebsiella oxytoca. Described as above. Format: cell-based. Here is the method: as §4, §3, §5
Series [3] deals with Bacillus subtilis (B. subtilis) (ATCC 6633). Description: Bacteria staining test, fluorescence microscopy. As to conditions: viable or dead B. subtilis, Fig. 3d. In kind it is cell-based. Here is the method:
(§6) Escherichia coli (E. coli) (ATCC 8739) and Bacillus subtilis (B. subtilis) (ATCC 6633) strains were routinely grown in Luria Bertani (LB) broth or on LB agar plates for 18h at 37 °C. Waterborne environmental bacteria such as Enterobacter cloacae (E. cloacae), Chryseobacterium indologenes (C. indologenes), Pseudomonas aeruginosa (P. aeruginosa), and E. coli (EC18) were purchased from Eurofins™. Environmental bacteria were grown in LB broth or on casein-peptone soymeal-peptone agar plates for 18h at 37 °C.
as §1, §2, §4, §3

The next series concerns Pseudomonas aeruginosa. Description: Bacteria staining test, fluorescence microscopy. The following applies: for fluorescence of stained viable bacteria compared with 5-CFDA: viable P. aeruginosa; for staining of viable versus dead bacteria: viable or dead P. aeruginosa, Fig. 3c. In kind it is cell-based. The procedure:
as §6, §1, §2, §4, §3

Another series deals with Enterobacter cloacae. Description: Bacteria staining test, fluorescence microscopy. In kind it is cell-based. As to conditions: for fluorescence of stained viable bacteria compared with 5-CFDA: viable E. cloacae; for staining of viable versus dead bacteria: viable or dead E. cloacae, Fig. 3a. The procedure: as §6, §1, §2, §4, §3
Series [4] concerns Chryseobacterium indologenes. Description: Bacteria staining test, fluorescence microscopy. In kind it is cell-based. As to conditions: for fluorescence of stained viable bacteria compared with 5-CFDA: viable C. indologenes; for staining of viable versus dead bacteria: viable or dead C. indologenes, Fig. 3b. Here is the method:
as §6, §1, §2, §4, §3

Entries after “also recorded” stand apart in the source; their conditions may differ.

Consider `CCCNC(=O)c1ccc2c(c1)C(=O)OC21c2cc(F)c(OCOC(C)=O)cc2Oc2cc(OCOC(C)=O)c(F)cc21` [Example 5-POGAM, 2',7'-difluoro-3-oxo-5-(propylcarbamoyl)-3H-spiroisobenzofuran-1,9'-xanthene-3',6'-diyl diacetoxymethyl ether], for which, in the series with E. coli (ATCC 8739), the “E. coli staining at 40 µM compared with 5-CFDA or 5-PFDA” value was “stronger E. coli staining than 5-CFDA or 5-PFDA”. The “viable E. coli fluorescence intensity relative to 5-CFDA staining” value in the series on E. coli (ATCC 8739) is “between two and three times higher; also recorded: three times brighter”. The “concentration range resulting in a saturation process” value with E. coli (ATCC 8739) was 20 to 40 µM. For the same compound, in the series on E. coli (ATCC 8739), the “concentration up to which an increase of viable E. coli fluorescence intensity is obtained” value is recorded as “about 15 µM”. Also, the “percentage remaining in the solution” value in series [1] is about 65%. Also, the “staining of viable versus dead bacteria” value in series [2] is reported as “The same results were obtained”; in the series with Citobacter freudii, “The same results were obtained”; in the series with Klebsiella oxytoca it was “The same results were obtained”; in series [3], “stained only viable”; with Pseudomonas aeruginosa, “stained only viable”; in the series with Enterobacter cloacae, “stained only viable”. In addition, the “staining of viable versus dead bacteria” value in series [4] was “stained only viable”. In addition, the “fluorescence of stained viable bacteria compared with 5-CFDA” value (in the series with Pseudomonas aeruginosa; in the series with Enterobacter cloacae; in [4]) was “brighter fluorescence than 5-CFDA stained bacteria” each time.
In the case of `CCCNC(=O)c1ccc2c(c1)C(=O)OC21c2cc(F)c(OC(C)=O)cc2Oc2cc(OC(C)=O)c(F)cc21` [Example 5-POGDA, 2',7'-difluoro-3-oxo-5-(propylcarbamoyl)-3H-spiro[isobenzofuran-1,9'-xanthene]-3',6'-diyl diacetate], the “E. coli staining at 40 µM compared with 5-CFDA or 5-PFDA” value with E. coli (ATCC 8739) is given as “stronger E. coli staining than 5-CFDA or 5-PFDA”. The “viable E. coli fluorescence intensity relative to 5-CFDA staining” value in the series on E. coli (ATCC 8739) is listed as “approximately 6”. In addition, the “concentration range resulting in a saturation process” value with E. coli (ATCC 8739) fell in the range of 20 to 40 µM. For the same compound, in the series on E. coli (ATCC 8739), the “concentration up to which an increase of viable E. coli fluorescence intensity is obtained” value is listed as “about 15 µM”. Besides, the “percentage remaining in the solution” value in [1] is “around 18%”. Also, the “staining of viable versus dead bacteria” value in [2] is “The same results were obtained”; in the series with Citobacter freudii, “The same results were obtained”; in the series on Klebsiella oxytoca, “The same results were obtained”; in [3] it was “stained only viable”; with Pseudomonas aeruginosa, “stained only viable”; with Enterobacter cloacae, “stained only viable”. Besides, the “staining of viable versus dead bacteria” value in series [4] is “stained only viable”. Moreover, the “fluorescence of stained viable bacteria compared with 5-CFDA” value (in the series with Pseudomonas aeruginosa; in the series on Enterobacter cloacae; in [4]) was “brighter fluorescence than 5-CFDA stained bacteria” in each case.
